Source: patent US4333952A, “Growth promotors for ruminants” (Beecham Group Limited, priority 1979, dated 1982)
Where two headings read alike, the source gives them in different places.

Legend:
methanogenesis = assay: in vivo gas collection screen in sheep (respirometer, methanogenesis and hydrogen evolution); conditions: sheep, 75 mg/day in feed, 5 week period
Experimental: In vivo studies in a "gas collection screen":
Groups of 4, 50 kg sheep were fed diets containing one of the compounds of formula (I) over a 5 week period. A different sheep from each group was put into a respirometer for 24 hours each day. Each sheep was thus monitored once in every […], gas flow was maintained by a peristaltic pump and measured using a commercial gas meter and a sub-sample collected in a butyl-rubber inner tube.

rumen fluid = assay: in vitro incubation of buffered rumen fluid (methane inhibition, propionate enhancement, headspace gases and volatile fatty acids); type: cell-based, sheep; conditions: for inhibition at 2 ppm / activation at 2 ppm / inhibition at 10 ppm / activation at 10 ppm: Ovis aries
Experimental: The compounds were tested for their ability to reduce or inhibit methane production and to enhance propionate formation. The method used is as follows:
The screening system is in vitro incubation of buffered rumen fluid with, or without, the addition of the test compound.
Rumen fluid is removed by suction from two rumenfistulated sheep, just before feeding. The fluid is strained and mixed. The incubation is for twenty hours in a shaking water-bath at 39° C. Each incubation flask contains: 30 ml McDougall's bicarbonate buffer, pH 6.7-6.9, 10 ml strained rumen fluid, 200 mg substrate (the substrate is a ground sample of the diet on which the sheep has been fed) and 1 ml 10% aqueous ethanol containing 0.2% Tween 80 and the compound under examination. Samples are taken at the end of the incubation period for analysis of headspace gases and volatile fatty acids, by g.l.c.
The compounds were tested at 10 ppm/flask, except for the compounds of Examples 9 and 10 which were tested at 5 ppm/flask.
Selected compounds were also tested according to the above protocol at doses of 2 and 3 ppm, the results being given in Table 2 below.
The compound of Example 1 was further tested in an in vitro a dose response study, according to the protocol above, at the doses shown in Table 3 below.

With `OC(CNc1ccccc1)C(Cl)(Cl)Cl` (stereo not drawn) [Example 4, 1,1,1-Trichloro-3-anilinopropan-2-ol] the Hydrogen evolution (methanogenesis) was 1.8 liters/24 hours, the “% inhibition of methanogenesis” value (methanogenesis; * = significantly different from control, p < 0.01) was 11.5% and the “% hydrogen present” value (rumen fluid; 10 ppm/flask, 20 h, 39° C.) was 2.13%. The “Molar % VFA Acetate” value (rumen fluid; 10 ppm/flask, 20 h, 39° C.) was 59.3 Molar %, the “Molar % VFA Butyrate” value (rumen fluid; 10 ppm/flask, 20 h, 39° C.) was 13.7 Molar % and the “Molar % VFA Propionate” value (rumen fluid; 10 ppm/flask, 20 h, 39° C.) was 23.9 Molar %. For the same molecule, the TVFA (rumen fluid; 10 ppm/flask, 20 h, 39° C.) was 57.2 μM/ml, the inhibition at 2 ppm (rumen fluid; 20 h, read-out: VFA production % change from control, Acetate) was 12.8% and the activation at 2 ppm (rumen fluid; 20 h, read-out: VFA production % change from control, Butyrate) was 3%. For the same molecule, the activation at 2 ppm (rumen fluid; 20 h, read-out: VFA production % change from control, Propionate) was 27.2%, the inhibition at 2 ppm (rumen fluid; 20 h, read-out: VFA production % change from control, TVFA) was 4% and the inhibition at 10 ppm (rumen fluid; 20 h, read-out: VFA production % difference from control, Acetate) was 36.4%. The activation at 10 ppm (rumen fluid; 20 h, read-out: VFA production % difference from control, Butyrate) was 18.2%, the activation at 10 ppm (rumen fluid; 20 h, read-out: VFA production % difference from control, Propionate) was 52.8% and the inhibition at 10 ppm (rumen fluid; 20 h, read-out: VFA production % difference from control, TVFA) was 16.7%. The inhibition at 10 ppm (rumen fluid; 10 ppm/flask, 20 h, 39° C., read-out: % inhibition of methane) was 98.5%, the inhibition at 2 ppm (rumen fluid; Table 2, 2 ppm, read-out: % inhibition of methane) was 20.8% and the “% hydrogen in headspace gases” value (rumen fluid; Table 2, 2 ppm) was 0.09%.
